Measurements from patent US10337071B2, “Oncogene NRF2” (National Cancer Center, priority 2008, dated 2019).

Columns and labels:
Type in all cases: cell-based
[1] = tested on: lung cancer cell lines with NRF2 gene abnormality (LK-2, EBC-1); assay: Suppression of proliferation by rapamycin treatment, MTS assay
Experimental: (§1) Suppression of proliferation by rapamycin treatment was examined for the esophageal cancer cell lines without NRF2 gene abnormality (KYSE-30, KYSE-140, KYSE-170, KYSE-270) and for the cell lines with NRF2 gene abnormality (KYSE-50, KYSE-70, KYSE-180). The 7 esophageal cancer cell lines were seeded onto 96 well plates at 5000 cells/well, and 0, 1, 5, and 10 nM of rapamycin were added. After incubated at 37 degrees C. for 72 hours, viable cells were counted based on the NADH activity (MTS assay, CellTiter 96 Aqueous One Solution Cell Proliferation Assay, Promega).
(§2) In addition, growth suppression effect of rapamycin treatment to the lung cancer cell lines without NRF2 gene abnormality (SQ-5, QG-56) or with NRF2 gene abnormality (LK-2, EBC-1) and to the head and neck cancer cell lines without NRF2 gene abnormality (HO-1-N-1, HSC2) or with NRF2 gene abnormality (HO-1-u-1) were also examined by similar method for the above esophageal cancer cell lines.

[2] = tested on: head and neck cancer cell lines with NRF2 gene abnormality (HO-1-u-1); assay: as above
Experimental: as §1, §2

[3] = tested on: esophageal cancer cell lines with NRF2 gene abnormality (KYSE-50, KYSE-70, KYSE-180); assay: as above; conditions: rapamycin 1, 5, 10 nM, 72 hours
Experimental: as §1

[4] = tested on: KYSE-180 esophageal cancer cell line (NRF2 gene mutation); assay: Growth suppression by dsRNA against NRF2, MTS assay; conditions: KYSE-180, 72 hours, vs control dsRNA
Experimental: (§3) NRF2 gene expression was suppressed by dsRNA for the esophageal cancer cell lines that have NRF2 gene mutation (KYSE-50 and KYSE-180). Esophagus cancer cell lines were seeded into 96 well plates at 5000 cells/well, and control dsRNA (ON-TARGET plus Non-targeting Pool, Dharmacon, D-001810-10) or dsRNA against NRF2 (NRF2 dsRNA) (5′-[…]-3′ (SEQ ID NO 20) and 5′-p[…]-3′ (SEQ ID NO 21)) were introduced using Lipofectamine (Lipofectamine RNAiMax, Invitrogen). Then they were incubated at 37 degrees C. for 72 hours. Then, the number of viable cells was determined by a MTS assay for the NADH activity (CellTiter 96 Aqueous One Solution Cell Proliferation Assay, Promega).

[5] = tested on: KYSE-50 esophageal cancer cell line (NRF2 gene mutation); assay: as above; conditions: KYSE-50, 72 hours, vs control dsRNA
Experimental: as §3

Row | Molecule | cell proliferation, ratio of cell counts, % of the control (0 nM = 100%) [1] | cell proliferation, ratio of cell counts, % of the control (0 nM = 100%) [2] | cell proliferation, ratio of cell counts, % of the control (0 nM = 100%) [3] | suppressive effect on proliferation compared with the control [4] | suppressive effect on proliferation compared with the control [5]
1 | CO[C@H]1C[C@@H]2CC[C@@H](C)[C@@](O)(O2)C(=O)C(=O)N2CCCC[C@H]2C(=O)O[C@H]([C@H](C)C[C@@H]2CC[C@@H](O)[C@H](OC)C2)CC(=O)[C@H](C)/C=C(\C)[C@@H](O)[C@@H](OC)C(=O)[C@H](C)C[C@H](C)/C=C/C=C/C=C/1C [rapamycin] | 62-70% | about 70% | about 70% |  | 
2 | NRF2 dsRNA: dsRNA against NRF2: 5'-UAAAGUGGCUGCUCAGAAUUU-3' (SEQ ID NO 20) and 5'-pAUUCUGAGCAGCCACUUUAUU-3' (SEQ ID NO 21) (second strand carries 5' phosphate, otherwise chemistry not given here, further chemistry not given here) |  |  |  | 38% | 26%
